Test system: ob/ob mice
Assay: Increase of circulating insulin concentrations in treated ob/ob mice
Assay type: in vivo
Conditions: male ob/ob mice, 10 minutes after dosing, relative to control group
Protocol: The results presented below exemplify that administration of the compounds as provided herein to an art-recognized animal model of human diabetes can lead to increased circulating insulin concentrations in the animal model.
Male ob/ob mice were weighed and bled from tail vein, and blood glucose levels were determined with a glucometer. Animals were placed into control and treatment groups having similar averages of glucose levels and body weights. In the morning of the following day, animals were dosed with vehicle (control group) or test article (5 ml/kg, p.o.). Blood samples were collected just before and 10 minutes after dosing, and the samples were assayed for insulin and glucose concentrations.
Table 1 provides exemplary data showing the increase of circulating insulin concentrations (expressed as ng/ml) in treated mice relative to control group at 10 minutes after dosing the treated mice. Concentrations of the exemplary compound tested in the mice are provided in the righthand column.

CCCCc1c(C(=O)NC(CC)c2ccncc2)cnn1-c1ncc(C)c(-c2cccs2)n1 (stereo not drawn) [5-Butyl-1-[5-methyl-4-(2-thienyl)pyrimidin-2-yl]-N-(1-pyridin-4-ylpropyl)-1H-pyrazole-4-carboxamide]
Increase in Insulin (dose 10 mg/kg p.o.): 3.1 ng/mL

CCCCc1c(C(=O)NC(CO)c2ccncc2)cnn1-c1ncc(C)c(-c2cccs2)n1 (stereo not drawn) [5-Butyl-N-(2-hydroxy-1-pyridin-4-ylethyl)-1-[5-methyl-4-(2-thienyl)pyrimidin-2-yl]-1H-pyrazole-4-carboxamide]
Increase in Insulin (dose 10 mg/kg p.o.): 4.3 ng/mL

CCCCc1c(C(=O)NCCn2cncc2C(=O)OC)cnn1-c1ncc(C)c(-c2cccs2)n1 [Methyl 1-{2-[({5-butyl-1-[5-methyl-4-(2-thienyl)pyrimidin-2-yl]-1H-pyrazol-4-yl}carbonyl)amino]ethyl}-1H-imidazole-5-carboxylate]
Increase in Insulin (dose 10 mg/kg p.o.): 6.6 ng/mL

CCCc1c(C(=O)NC(CO)c2cncn2C)cnn1-c1ncc(C)c(-c2cccs2)n1 (stereo not drawn) [N-[2-Hydroxy-1-(1-methyl-1H-imidazol-5-yl)ethyl]-1-[5-methyl-4-(2-thienyl)pyrimidin-2-yl]-5-propyl-1H-pyrazole-4-carboxamide]
Increase in Insulin (dose 10 mg/kg p.o.): 3.1 ng/mL

CCCCc1c(C(=O)NC(CO)c2cncn2C)cnn1-c1ncc(C)c(-c2cccs2)n1 (stereo not drawn) [5-Butyl-N-[2-hydroxy-1-(1-methyl-1H-imidazol-5-yl)ethyl]-1-[5-methyl-4-(2-thienyl)pyrimidin-2-yl]-1H-pyrazole-4-carboxamide]
Increase in Insulin (dose 10 mg/kg p.o.): 5.2 ng/mL

CCCCc1c(C(=O)NCc2cncn2CC(=O)OC)cnn1-c1ncc(C)c(-c2cccs2)n1 [Methyl (5-{[({5-butyl-1-[5-methyl-4-(2-thienyl)pyrimidin-2-yl]-1H-pyrazol-4-yl}carbonyl)amino]methyl}-1H-imidazol-1-yl)acetate]
Increase in Insulin (dose 10 mg/kg p.o.): 4.3 ng/mL

CCOCc1c(C(=O)NC(C)c2ccncc2)cnn1-c1ncc(C)c(-c2cccs2)n1 (stereo not drawn) [5-(Ethoxymethyl)-1-[5-methyl-4-(2-thienyl)pyrimidin-2-yl]-N-(1-pyridin-4-ylethyl)-1H-pyrazole-4-carboxamide]
Increase in Insulin (dose 10 mg/kg p.o.): 6.7 ng/mL

COCc1c(C(=O)NCc2cnc3ccccn23)cnn1-c1ncc(C)c(-c2cccs2)n1 [N-(Imidazo[1,2-a]pyridin-3-ylmethyl)-5-(methoxymethyl)-1-[5-methyl-4-(2-thienyl)pyrimidin-2-yl]-1H-pyrazole-4-carboxamide]
Increase in Insulin (dose 10 mg/kg p.o.): 4.4 ng/mL

CCCCc1c(C(=O)NC(C)(C)c2ccncc2)cnn1-c1ncc(C)c(-c2cccs2)n1 [5-Butyl-N-(1-methyl-1-pyridin-4-ylethyl)-1-[5-methyl-4-(2-thienyl)pyrimidin-2-yl]-1H-pyrazole-4-carboxamide]
Increase in Insulin (dose 30 mg/kg p.o.): 4.6 ng/mL

CCCCc1c(C(=O)NCc2ccncc2)cnn1-c1ncc(C)c(-c2cccs2)n1 [5-Butyl-1-[5-methyl-4-(2-thienyl)pyrimidin-2-yl]-N-(pyridin-4-ylmethyl)-1H-pyrazole-4-carboxamide]
Increase in Insulin (dose 30 mg/kg p.o.): 4.1 ng/mL

CCCCc1c(C(=O)NCc2cnc3ccccn23)cnn1-c1ncc(Br)c(NC2CCC2)n1 [1-[5-Bromo-4-(cyclobutylamino)pyrimidin-2-yl]-5-butyl-N-(imidazo[1,2-a]pyridin-3-ylmethyl)-1H-pyrazole-4-carboxamide]
Increase in Insulin (dose 10 mg/kg p.o.): 7.2 ng/mL

CCCCc1c(C(=O)NC2CCCn3cncc32)cnn1-c1ncc(C)c(-c2cccs2)n1 (stereo not drawn) [5-Butyl-1-[5-methyl-4-(2-thienyl)pyrimidin-2-yl]-N-(5,6,7,8-tetrahydroimidazo[1,5-a]pyridin-8-yl)-1H-pyrazole-4-carboxamide]
Increase in Insulin (dose 3 mg/kg p.o.): 1.4 ng/mL

CCCCc1c(C(=O)NCCn2ccnc2)cnn1-c1ncc(C)c(-c2cccs2)n1 [5-Butyl-N-[2-(1H-imidazol-1-yl)ethyl]-1-[5-methyl-4-(2-thienyl)pyrimidin-2-yl]-1H-pyrazole-4-carboxamide]
Increase in Insulin (dose 10 mg/kg p.o.): 2.9 ng/mL

CCCCc1c(C(=O)NC(C)c2cncn2C)cnn1-c1ncc(C)c(-c2cccs2)n1 (stereo not drawn) [5-Butyl-N-[1-(1-methyl-1H-imidazol-5-yl)ethyl]-1-[5-methyl-4-(2-thienyl)pyrimidin-2-yl]-1H-pyrazole-4-carboxamide]
Increase in Insulin (dose 10 mg/kg p.o.): 6.4 ng/mL

CCCCc1c(C(=O)NCc2cnc3ccccn23)cnn1-c1ncc(C)c(-c2cccs2)n1 [5-Butyl-N-(imidazo[1,2-a]pyridin-3-ylmethyl)-1-[5-methyl-4-(2-thienyl)pyrimidin-2-yl]-1H-pyrazole-4-carboxamide]
Increase in Insulin (dose 10 mg/kg p.o.): 8.5 ng/mL

CCCCc1c(C(=O)NCc2c(C)ncn2CC(=O)N(C)C)cnn1-c1ncc(C)c(-c2cccs2)n1 [5-Butyl-N-({1-[2-(dimethylamino)-2-oxoethyl]-4-methyl-1H-imidazol-5-yl}methyl)-1-[5-methyl-4-(2-thienyl)pyrimidin-2-yl]-1H-pyrazole-4-carboxamide]
Increase in Insulin (dose 10 mg/kg p.o.): 4.7 ng/mL

CCCc1c(C(=O)NCc2cncn2C)cnn1-c1ncc(C)c(-c2cccs2)n1 [N-[(1-Methyl-1H-imidazol-5-yl)methyl]-1-[5-methyl-4-(2-thienyl)pyrimidin-2-yl]-5-propyl-1H-pyrazole-4-carboxamide]
Increase in Insulin (dose 30 mg/kg p.o.): 28.5 ng/mL

CCCCc1c(C(=O)Nc2cccc3ncn(C)c23)cnn1-c1ncc(C)c(-c2cccs2)n1 [5-Butyl-N-(1-methyl-1H-benzo[d]imidazol-7-yl)-1-(5-methyl-4-(thiophen-2-yl)pyrimidin-2-yl)-1H-pyrazole-4-carboxamide]
Increase in Insulin (dose 10 mg/kg p.o.): 4.3 ng/mL

CCCCc1c(C(=O)NCc2c(C)ncn2CC(=O)NC)cnn1-c1ncc(C)c(-c2cccs2)n1 [5-Butyl-N-({4-methyl-1-[2-(methylamino)-2-oxoethyl]-1H-imidazol-5-yl}methyl)-1-[5-methyl-4-(2-thienyl)pyrimidin-2-yl]-1H-pyrazole-4-carboxamide]
Increase in Insulin (dose 10 mg/kg p.o.): 9 ng/mL

CCCCc1c(C(=O)N[C@@H](Cc2c[nH]cn2)C(=O)O)cnn1-c1ncc(C)c(-c2cccs2)n1 [N-({5-Butyl-1-[5-methyl-4-(2-thienyl)pyrimidin-2-yl]-1H-pyrazol-4-yl}carbonyl)-L-histidine]
Increase in Insulin (dose 10 mg/kg p.o.): 4.5 ng/mL

CCCCc1c(C(=O)NCCn2cncc2C(=O)O)cnn1-c1ncc(C)c(-c2cccs2)n1 [1-{2-[({5-Butyl-1-[5-methyl-4-(2-thienyl)pyrimidin-2-yl]-1H-pyrazol-4-yl}carbonyl)amino]ethyl}-1H-imidazole-5-carboxylic acid]
Increase in Insulin (dose 10 mg/kg p.o.): 6.1 ng/mL

CCCCc1c(C(=O)Nc2cccc3nc[nH]c23)cnn1-c1ncc(C)c(-c2cccs2)n1 [N-1H-Benzimidazol-7-yl-5-butyl-1-[5-methyl-4-(2-thienyl)pyrimidin-2-yl]-1H-pyrazole-4-carboxamide]
Increase in Insulin (dose 10 mg/kg p.o.): 0.9 ng/mL

CCCCc1c(C(=O)NC2CCn3cncc32)cnn1-c1ncc(C)c(-c2cccs2)n1 (stereo not drawn) [5-Butyl-N-(6,7-dihydro-5H-pyrrolo[1,2-c]imidazol-7-yl)-1-[5-methyl-4-(2-thienyl)pyrimidin-2-yl]-1H-pyrazole-4-carboxamide]
Increase in Insulin (dose 10 mg/kg p.o.): 2.2 ng/mL

CCCc1c(C(=O)NC2CCCc3cnccc32)cnn1-c1ncc(C)c(-c2cccs2)n1 (stereo not drawn) [1-[5-Methyl-4-(2-thienyl)pyrimidin-2-yl]-5-propyl-N-(5,6,7,8-tetrahydroisoquinolin-5-yl)-1H-pyrazole-4-carboxamide]
Increase in Insulin (dose 10 mg/kg p.o.): 8.8 ng/mL

— US8022061B2, “N-aryl pyrazole compounds, compositions, and methods for their use” (Amgen Inc., priority 2006, dated 2011)
